Laboratory results from patent publication US5578570A, “Method of treating septic shock using thymosin β4” (The George Washington University Medical Center, priority 1994, dated 1996).

Assays:
Rats with Septic Shock = assay: Survival of Sprague-Dawley rats in septic shock model (peritonitis); assay type: in vivo; conditions: for Survival of rats (number alive): Table XIV, septic shock + antibiotic (gentamicin sulfate, 1 mg/rat) + thymosin β4 1 mg/rat × 3 (0, 2, 4 hr post induction of peritonitis), 10 rats at 0 hr; for Number of Rats Alive: septic shock + Tβ4 1 mg/rat × 3, 10 rats at 0 h
Text: (§1) Using a septic shock model in rats (Sprague-Dawley, male, 200-225 g each), the effect of thymosin β4 alone and together with antibiotics was studied. Peritonitis was induced in rats in the following way. A 1-cm incision was made into the peritoneal which exposed the cecum. A tight ligature was placed around the cecum with 4-0 suture distal to the insertion of the small bowel, forming an area of devitalized tissue while maintaining bowel continuity. A puncture wound was made with 16-gauge needle into the anti-mesenteric surface of the cecum and a small amount of fecal contents was expressed through the wound. The cecum was replaced into the peritoneal cavity, and the anterior peritoneal wall and skin were closed with surgical staples. Each animal was given a bolus of normal saline (15 ml/kg) for hydration and allowed to recover overnight.

T × β2 = assay: T×β2 levels in a septic shock model in rat; assay type: in vivo; conditions: rats with septic shock + Tβ4 1 mg/rat × 3
Text: as §1
The results presented in Tables XV to XVIII below show effects of Tβ4 respectively on rat cytokine levels, blood malonyldialdehyde levels, glutathione levels and arachidonic acid metabolic levels.

With Thymosin β4 [Tβ4] the “Survival of rats (number alive)” value (Rats with Septic Shock; 24 hr) was 4, the “Survival of rats (number alive)” value (Rats with Septic Shock; 48 hr) was 3 and the “Survival of rats (number alive)” value (Rats with Septic Shock; 72 hr) was 3. For the same substance, the “Number of Rats Alive” value (Rats with Septic Shock; Table XIX, 24 h) was 3, the “Number of Rats Alive” value (Rats with Septic Shock; Table XIX, 48 h) was 3 and the “Number of Rats Alive” value (Rats with Septic Shock; Table XIX, 72 h) was 3. The “Number of Rats Alive” value (Rats with Septic Shock; Table XX, 24 h) was 4, the “Number of Rats Alive” value (Rats with Septic Shock; Table XX, 48 h) was 3 and the “Number of Rats Alive” value (Rats with Septic Shock; Table XX, 72 h) was 3. The “T × β2” value (T × β2) was 1627 ± 123 pg/mL.
